Data reported in patent US20060069132A1, “Azolecarboxamide herbicides” (priority 2004, published 2006).

Assays:
Italian ryegrass = experiment: Test C postemergence herbicide test; format: in vivo, Lolium multiflorum
Protocol: (§1) At the same time, plants selected from these crop and weed species and also winter barley (Hordeum vulgare L.), blackgrass (Alopecurus myosuroides Huds.), canarygrass (Phalaris minor Retz.), chickweed (Stellaria media (L.) Vill.), downy bromegrass (Bromus tectorum L.), green foxtail (Setaria viridis (L.) Beauv.), Italian ryegrass (Lolium multiflorum Lam.), wheat (Triticum aestivum L.), wild oat (Avenafatua L.) and windgrass (Apera spica-venti (L.) Beauv.) were treated with postemergence applications of some of the test chemicals formulated in the same manner. Plants ranged in height from 2 to 18 cm (1- to 4-leaf stage) for postemergence treatments. Plant species in the flooded paddy test consisted of rice (Oryza sativa), smallflower umbrella sedge (Cyperus difformis L.), ducksalad (Heteranthera limosa (Sw.) Willd.) and barnyardgrass (Echinochloa crus-galli (L.) Beauv.) grown to the 2-leaf stage for testing. Treated plants and controls were maintained in a greenhouse for 12 to 14 days, after which time all species were compared to controls and visually evaluated. Plant response ratings, summarized in Table C, are based on a scale of 0 to 100 where 0 is no effect and 100 is complete control. A dash (-) response means no test result.

rice = experiment: Test B flooded paddy test; format: in vivo, Oryza sativa; conditions: 1000 g ai/ha, scale 0 to 100 (0 no effect, 100 complete control)
Summary of the method: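 Scale 0–100: zero equals no visible effect, 100 complete control, judged by eye relative to controls. Timing: 13 to 15 days in greenhouse post-treatment. Growth stage at spraying: two leaves (paddy) or one to four leaves, 2–18 cm (postemergence).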

barnyardgrass [1] = experiment: Test B flooded paddy test; format: in vivo, Echinochloa crus-galli; conditions: 1000 g ai/ha, scale 0 to 100 (0 no effect, 100 complete control)
Summary of the method: (§2)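 Read-out: visual comparison with controls, scored 0 to 100, where 100 means complete control and 0 no effect. Formulated chemicals were applied postemergence to plants 2–18 cm tall (1- to 4-leaf), or to flooded-paddy plants at the 2-leaf stage, then held 13 to 15 days under glass.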

giant foxtail = experiment: Test B pre-/postemergence herbicide test; format: in vivo, Setaria faberi
Summary of the method: (§3)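 Formulation: non-phytotoxic solvent mix with surfactant. Timing: preemergence on seed and postemergence on 2–18 cm plants, applied concurrently. Readout after 13–15 d greenhouse: visual 0–100 control rating against controls.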

large crabgrass = experiment: Test B pre-/postemergence herbicide test; format: in vivo, Digitaria sanguinalis
Summary of the method: as §3

wheat [2] = experiment: Test C postemergence herbicide test; format: in vivo, Triticum aestivum
Protocol: as §1

pigweed = experiment: Test B pre-/postemergence herbicide test; format: in vivo, Amaranthus retroflexus
Summary of the method: as §3

[3] = test system: small flower umbrella sedge; experiment: Test B flooded paddy test; format: in vivo, Cyperus difformis; conditions: 1000 g ai/ha, scale 0 to 100 (0 no effect, 100 complete control)
Summary of the method: as §2

blackgrass [4] = experiment: Test B postemergence herbicide test; format: in vivo, Alopecurus myosuroides
Summary of the method: as §2

morningglory = experiment: Test B pre-/postemergence herbicide test; format: in vivo, Ipomoea coccinea
Summary of the method: (§4)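 Pre: seeds sown, then sprayed. Post: 1–4-leaf plants (2–18 cm) sprayed at the same time. Paddy: flooded, treated at 2-leaf stage. Formulation: non-phytotoxic solvent with surfactant. Greenhouse 13–15 days; visual 0–100 score relative to controls.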

ducksalad = experiment: Test B flooded paddy test; format: in vivo, Heteranthera limosa; conditions: 1000 g ai/ha, scale 0 to 100 (0 no effect, 100 complete control)
Summary of the method: as §2

wild oat [5] = experiment: Test C postemergence herbicide test; format: in vivo, Avenafatua
Protocol: as §1

winter barley = experiment: Test C postemergence herbicide test; format: in vivo, Hordeum vulgare
Protocol: as §1

blackgrass [6] = experiment: Test C postemergence herbicide test; format: in vivo, Alopecurus myosuroides
Protocol: as §1

wheat [7] = experiment: Test B postemergence herbicide test; format: in vivo, Triticum aestivum; set-up: key to Wheat plant response rating: 0 = no effect, 100 = complete control
Summary of the method: (§5)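 Postemergence plants were sprayed with formulated test chemicals at 2 to 18 cm height (1- to 4-leaf stage); paddy species were grown to the 2-leaf stage. After 13 to 15 days in a greenhouse, injury was rated visually against untreated controls on a 0–100 scale (0 = no effect, 100 = complete control).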

Surinam grass = experiment: Test B pre-/postemergence herbicide test; format: in vivo, Urochloa decumbens
Summary of the method: as §3

corn = experiment: Test B pre-/postemergence herbicide test; format: in vivo, Zea mays
Summary of the method: as §3

lambsquarters = experiment: Test B pre-/postemergence herbicide test; format: in vivo, Chenopodium album
Summary of the method: as §3

canarygrass = experiment: Test C postemergence herbicide test; format: in vivo, Phalaris minor
Protocol: as §1

windgrass = experiment: Test C postemergence herbicide test; format: in vivo, Apera spica-venti
Protocol: as §1

barnyardgrass [8] = experiment: Test B pre-/postemergence herbicide test; format: in vivo, Echinochloa crus-galli; conditions: for Barnyardgrass plant response rating: Postemergence, scale 0 (no effect) to 100 (complete control)
Summary of the method: as §4

downy bromegrass = experiment: Test C postemergence herbicide test; format: in vivo, Bromus tectorum
Protocol: as §1

green foxtail = experiment: Test C postemergence herbicide test; format: in vivo, Setaria viridis
Protocol: as §1

cocklebur = experiment: Test B pre-/postemergence herbicide test; format: in vivo, Xanthium strumarium
Summary of the method: as §4

velvetleaf = experiment: Test B pre-/postemergence herbicide test; format: in vivo, Abutilon theophrasti
Summary of the method: as §3

wild oat [9] = experiment: Test B postemergence herbicide test; format: in vivo, Avena fatua
Summary of the method: as §5

[10] = Postemergence, 500 g ai/ha, scale 0 to 100, 0 no effect, 100 complete control
[11] = postemergence, 125 g ai/ha, scale 0 to 100
[12] = postemergence, 62 g ai/ha, scale 0 to 100
[13] = 125 g ai/ha, 0 is no effect, 100 is complete control, preemergence
[14] = Postemergence, 500 g ai/ha, scale 0 (no effect) to 100 (complete control)
[15] = Postemergence, 500 g ai/ha, scale 0 to 100
[16] = Postemergence, 250 g ai/ha, scale 0 to 100, 0 no effect, 100 complete control

CN(C)C(=O)c1cccc(NC(=O)c2nn(C(C)(C)C)nc2Br)c1 [Compound 429]
Plant response rating, Ryegrass, Italian (Italian ryegrass; [10]): 60 | Plant response rating, Ryegrass, Italian (Italian ryegrass; [11]): 50 | Plant response rating, Ryegrass, Italian (Italian ryegrass; [12]): 45 | Rice plant response rating (rice): 70 | Barnyardgrass plant response rating (barnyardgrass [1]): 100 | Plant response rating (0 to 100 scale), Foxtail, Giant (giant foxtail; [13]): 90 | Foxtail, Giant plant response rating (giant foxtail; [14]): 40 | Foxtail, Giant plant response rating (giant foxtail; [11]): 30 | Plant response rating (0 to 100 scale), Crabgrass, Large (large crabgrass; [13]): 100 | Crabgrass, Large plant response rating (large crabgrass; [14]): 40 | Crabgrass, Large plant response rating (large crabgrass; [11]): 30 | Plant response rating, Wheat (wheat [2]; [10]): 45 | Plant response rating, Wheat (wheat [2]; [11]): 35 | Plant response rating, Wheat (wheat [2]; [12]): 25 | Plant response rating (0 to 100 scale), Pigweed (pigweed; [13]): 100 | Pigweed plant response rating (pigweed; [14]): 50 | Pigweed plant response rating (pigweed; [11]): 40 | Sedge, Umbrella plant response rating [3]: 90 | Blackgrass plant response rating (blackgrass [4]; [14]): 50 | Blackgrass plant response rating (blackgrass [4]; [11]): 20 | Plant response rating (0 to 100 scale), Morningglory (morningglory; [13]): 90 | Morningglory plant response rating (morningglory; [14]): 80 | Morningglory plant response rating (morningglory; [11]): 70 | Ducksalad plant response rating (ducksalad): 60 | Plant response rating, Oat, Wild (wild oat [5]; [10]): 65 | Plant response rating, Oat, Wild (wild oat [5]; [11]): 60 | Plant response rating, Oat, Wild (wild oat [5]; [12]): 45 | Barley, Winter plant response rating (winter barley; [15]): 40 | Plant response rating, Barley, Winter (winter barley; Postemergence, 125 g ai/ha, scale 0 to 100, 0 no effect, 100 complete control): 35 | Plant response rating, Barley, Winter (winter barley; [16]): 35 | Plant response rating, Barley, Winter (winter barley; postemergence, 62 g ai/ha, scale 0 to 100 (0 no effect, 100 complete control)): 25 | Blackgrass plant response rating (blackgrass [6]; [15]): 65 | Plant response rating, Blackgrass (blackgrass [6]; [16]): 60 | Plant response rating, Blackgrass (blackgrass [6]; [11]): 60 | Plant response rating, Blackgrass (blackgrass [6]; [12]): 45 | Wheat plant response rating (wheat [7]; 500 g ai/ha, scale 0 to 100, 0 no effect, 100 complete control, preemergence): 100 | Wheat plant response rating (wheat [7]; [14]): 40 | Wheat plant response rating (wheat [7]; [11]): 20 | Plant response rating (0 to 100 scale), Surinam Grass (Surinam grass; [13]): 70 | Surinam Grass plant response rating (Surinam grass; [14]): 30 | Surinam Grass plant response rating (Surinam grass; [11]): 20 | Plant response rating (0 to 100 scale), Corn (corn; [13]): 40 | Corn plant response rating (corn; [14]): 40 | Corn plant response rating (corn; [11]): 30 | Plant response rating (0 to 100 scale), Lambsquarters (lambsquarters; [13]): 100 | Lambsquarters plant response rating (lambsquarters; [14]): 70 | Lambsquarters plant response rating (lambsquarters; [11]): 50 | Plant response rating, Canarygrass (canarygrass; [16]): 55 | Plant response rating, Canarygrass (canarygrass; [10]): 60 | Plant response rating, Canarygrass (canarygrass; [11]): 40 | Plant response rating, Canarygrass (canarygrass; [12]): 20 | Plant response rating, Windgrass (windgrass; [10]): 60 | Plant response rating, Windgrass (windgrass; [11]): 40 | Plant response rating, Windgrass (windgrass; [12]): 40 | Plant response rating (0 to 100 scale), Barnyardgrass (barnyardgrass [8]; [13]): 100 | Barnyardgrass plant response rating (barnyardgrass [8]; 125 g ai/ha): 30 | Barnyardgrass plant response rating (barnyardgrass [8]; 500 g ai/ha): 60 | Plant response rating, Bromegrass, Downy (downy bromegrass; [16]): 45 | Plant response rating, Bromegrass, Downy (downy bromegrass; [10]): 55 | Plant response rating, Bromegrass, Downy (downy bromegrass; [11]): 40 | Plant response rating, Bromegrass, Downy (downy bromegrass; [12]): 40 | Plant response rating, Foxtail, Green (green foxtail; [16]): 55 | Plant response rating, Foxtail, Green (green foxtail; [10]): 65 | Plant response rating, Foxtail, Green (green foxtail; [11]): 50 | Plant response rating, Foxtail, Green (green foxtail; [12]): 40 | Plant response rating (0 to 100 scale), Cocklebur (cocklebur; [13]): 60 | Cocklebur plant response rating (cocklebur; [14]): 70 | Cocklebur plant response rating (cocklebur; [11]): 60 | Plant response rating (0 to 100 scale), Velvetleaf (velvetleaf; [13]): 80 | Velvetleaf plant response rating (velvetleaf; [14]): 60 | Velvetleaf plant response rating (velvetleaf; [11]): 50 | Oat, Wild plant response rating (wild oat [9]; [14]): 40 | Oat, Wild plant response rating (wild oat [9]; [11]): 30
